# Laboratory results published in article PMC10246557, “Kinetic and inhibition studies on human Jumonji-C (JmjC) domain-containing protein 5” (RSC Chemical Biology, 2023).
# Read-outs that look alike come from different tables or passages of the source.
# Legend:
# human FIH = conditions: FIH 0.15 μM, cited from earlier work; for FIH (%): substrate hydroxylation with the compound as cosubstrate: absence of 2OG, 2OG derivative 330 μM, Fe(II) 50 μM, HIF-1α788–822 5.0 μM; for K m / k cat: HIF-1α788–822 substrate
# human JMJD5 = biological target: T1, human JMJD5 (Homo sapiens, UniProt Q8N371); test: SPE-MS JMJD5 turnover and kinetic assay (RPS6_128–148 hydroxylation); format: biochemical; conditions: for JMJD5 (%): RPS6_128–148 hydroxylation with the compound as cosubstrate: absence of 2OG, JMJD5 0.15 μM, 2OG derivative 400 μM, Fe(II) 20 μM, RPS6_128–148 2.0 μM
# T1 construct: made in house; host or cells: Escherichia coli BL21(DE3)
# Protocol: JMJD5 turnover assays for time course and kinetic experiments were performed in 96-well polypropylene assay plates (Greiner) with either […] total reaction volume using the concentrations given in the manuscript or ESI, ^† and JMJD5-catalysed substrate hydroxylation was directly monitored using SPE-MS. […] Assay samples were aspirated under vacuum for 0.6 s and loaded onto a C4 solid phase extraction (SPE) cartridge. After loading, the C4 SPE cartridge was washed with 0.1%v/v aqueous formic acid to remove non-volatile buffer salts (5.5 s, 1.5 mL min^−1). The peptide was eluted from the SPE cartridge with 0.1%v/v aqueous formic acid in 80/20v/v acetonitrile/water into the mass spectrometer (5.5 s, 1.5 mL min^−1) and the SPE cartridge re-equilibrated with 0.1%v/v aqueous formic acid (0.5 s, 1.5 mL min^−1). The mass spectrometer was operated using the MassHunter Workstation B.08.00 software (Agilent), the mass spectrometer parameters were: capillary voltage (4000 V), nozzle voltage (1000 V), fragmentor voltage (365 V), gas temperature (280 °C), gas flow (13 L min^−1), sheath gas temperature (350 °C), sheath gas flow (12 L min^−1). […] Data were exported into Microsoft Excel and used to calculate the % conversion of the hydroxylation reaction using the equation: % conversion = 100 × (integral product peptide)/(integral substrate peptide + integral product peptide).
# parameters (continues on the following two pages). Maximum velocities (vapp ) and Michaelis constants (Kapp)
# of JMJD5 were determined in independent triplicates, monitoring the JMJD5-catalyzed hydroxylation of the
# SPE-MS, as described (Experimental Section).
# 20 °C). Measurement times were normalized to the first sample injection analyzed after the addition of JMJD5 to
# shown as the mean of three independent runs (n = 3; mean ± standard deviation, SD).
# hexahydrate (20 μM, (NH4)2Fe(SO4)2·6H2O); and (b) hydroxylation rates used to determine kinetic parameters of
# (1 picture or pasted object on this page, not shown here)
# Maximum velocities (vapp ) and
# Michaelis constants (Kapp) of JMJD5 were determined in independent triplicates for (1R)-3-
# (carboxycarbonyl)cyclopentane-1-carboxylic acid (14), monitoring the JMJD5-catalyzed hydroxylation of the
# as described (Experimental Section).
# pH 7.5, 20 °C). Measurement times were normalized to the first sample injection analyzed after the addition of
# (§1) Data are shown as the mean of three independent runs (n = 3; mean ± SD).
# to determine kinetic parameters of JMJD5 for 14.
# human KDM4E = biological target: T2, human KDM4E (Homo sapiens, UniProt B2RXH2); test: KDM4E SPE-MS turnover and kinetic assay (H3 K9(me3) peptide demethylation); format: biochemical; conditions: for K app m / k app cat: 0.15 μM KDM4E, ARTAQTARK(me3)STGGIA 10 μM
# T2 sequence (B2RXH2 1-506): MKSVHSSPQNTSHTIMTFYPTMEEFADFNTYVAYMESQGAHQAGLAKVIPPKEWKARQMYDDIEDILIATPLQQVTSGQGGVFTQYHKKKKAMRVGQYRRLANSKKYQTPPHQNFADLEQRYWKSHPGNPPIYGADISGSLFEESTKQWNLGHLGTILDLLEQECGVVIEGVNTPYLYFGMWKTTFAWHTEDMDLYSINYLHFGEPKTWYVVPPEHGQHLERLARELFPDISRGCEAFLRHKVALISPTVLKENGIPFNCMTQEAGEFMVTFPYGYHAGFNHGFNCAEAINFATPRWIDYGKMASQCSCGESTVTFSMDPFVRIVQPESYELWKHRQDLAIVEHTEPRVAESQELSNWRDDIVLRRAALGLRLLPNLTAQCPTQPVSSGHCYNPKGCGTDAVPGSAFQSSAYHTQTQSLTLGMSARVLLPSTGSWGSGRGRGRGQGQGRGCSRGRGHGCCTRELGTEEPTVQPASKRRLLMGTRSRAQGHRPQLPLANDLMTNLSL
# Protocol: KDM4E turnover and inhibition assays were performed as reported using recombinant human KDM4E and a histone 3 K9(me3) derivative (i.e. […](me3)STGGIA)[41] as substrate.[95]
# Supplementary Figure S3. Rates of KDM4E-catalyzed Nε-trimethyl lysine demethylations of a histone 3- […]
# Maximum velocities (vapp ) and Michaelis […]
# catalyzed Nε-trimethyl lysine demethylation of the histone 3 K9(me3)-derived peptide […]
# (me3)STGGIA2 by SPE-MS as described;3 note that mono-, di-, and tri-demethylated product […]
# buffer (50 mM MES, pH 7.0, 20 °C). Measurement times were normalized to the first sample injection analyzed […]
# as §1
# (a) Time course of the KDM4E-catalyzed Nε-trimethyl lysine demethylation reaction of the […]
# human AspH = conditions: absence of 2OG; AspH 0.1 μM, 2OG derivative 330 μM, Fe(II) 50 μM, hFX-CP101–119 2.0 μM; cited from earlier work
# [1] = absence of 2OG, KDM4E 0.15 μM, 2OG derivative 330 μM, Fe(II) 50 μM, ARTAQTARK(me3)STGGIA 10.0 μM
# T1 sequence (Q8N371 whole entry): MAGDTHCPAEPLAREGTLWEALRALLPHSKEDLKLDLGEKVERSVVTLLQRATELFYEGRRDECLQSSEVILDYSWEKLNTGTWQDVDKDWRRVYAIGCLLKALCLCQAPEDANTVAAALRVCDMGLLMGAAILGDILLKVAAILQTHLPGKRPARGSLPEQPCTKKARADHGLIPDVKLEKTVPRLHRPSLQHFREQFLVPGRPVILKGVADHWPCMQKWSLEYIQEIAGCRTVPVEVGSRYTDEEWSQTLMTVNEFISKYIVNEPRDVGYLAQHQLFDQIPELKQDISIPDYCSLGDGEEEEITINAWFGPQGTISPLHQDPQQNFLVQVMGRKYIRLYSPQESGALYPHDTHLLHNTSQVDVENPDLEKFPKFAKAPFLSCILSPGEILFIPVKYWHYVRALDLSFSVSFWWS
Compound,FIH (%): substrate hydroxylation with the compound as cosubstrate (human FIH),JMJD5 (%): RPS6_128–148 hydroxylation with the compound as cosubstrate (human JMJD5),KDM4E (%): substrate demethylation with the compound as cosubstrate (human KDM4E; [1]),AspH (%): substrate hydroxylation with the compound as cosubstrate (human AspH),also measured
CC1(C)C(C(=O)O)C1C(=O)C(=O)O (mixture of isomers) [Entry 21],< 1%,< 1%,< 1%,< 1%,–
CC(C)CC(CC(=O)C(=O)O)C(=O)O (racemic) [Entry 16],< 1%,< 1%,< 1%,< 1%,–
CC(C)(C)CCC(CC(=O)C(=O)O)C(=O)O (racemic) [Entry 17],< 1%,< 1%,< 1%,< 1%,–
O=C(O)C(=O)CC(Cc1ccccc1)C(=O)O (racemic) [Entry 19],< 1%,< 1%,< 1%,< 1%,–
O=C(O)CCC(=O)C(=O)O [C00001],∼50%,∼40%,–,–,KDM4E (%): substrate demethylation with the compound as cosubstrate (human KDM4E): ∼70%
CC(C)(CC(=O)C(=O)O)C(=O)O [C00002],–,–,<1%,–,–
CC(CC(=O)O)C(=O)C(=O)O (stereo not drawn) [C00003],∼55%,∼10%,∼10%,>95%,–
CCC(CC(=O)C(=O)O)C(=O)O (stereo not drawn) [C00004],∼10%,∼10%,<1%,<1%,–
CCC(CC(=O)O)C(=O)C(=O)O (stereo not drawn) [C00005],∼2%,<1%,<1%,<1%,–
CCCC(CC(=O)C(=O)O)C(=O)O (stereo not drawn) [C00006],∼5%,∼10%,<1%,<1%,–
CCCC(CC(=O)O)C(=O)C(=O)O (stereo not drawn) [C00007],<1%,<1%,<1%,<1%,–
O=C(O)C(=O)CC(CCCc1ccccc1)C(=O)O (stereo not drawn) [C00008],<1%,<1%,<1%,<1%,–
O=C(O)CC(CCCc1ccccc1)C(=O)C(=O)O (stereo not drawn) [C00009],<1%,<1%,∼2%,<1%,–
O=C(O)C(=O)CC(Cc1ccccc1)C(=O)O (stereo not drawn) [C00010],<1%,<1%,<1%,<1%,–
O=C(O)CC(Cc1ccc(OC(F)(F)F)cc1)C(=O)C(=O)O (stereo not drawn) [C00011],<1%,<1%,<1%,<1%,–
O=C(O)C(=O)C1CC[C@@H](C(=O)O)C1 (stereo partly drawn) [C00012],∼2%,–,<1%,∼15%,–
COc1ccc(CC(CC(=O)O)C(=O)C(=O)O)cc1 (stereo not drawn) [C00013],<1%,∼10%,∼5%,<1%,–
O=C(O)C(=O)c1ccccc1C(=O)O [C00014],<1%,<1%,<1%,<1%,–
CC1(C)c2ccccc2-c2ccc(CC(CC(=O)O)C(=O)C(=O)O)cc21 (stereo not drawn) [C00015],<1%,<1%,<1%,<1%,–
O=C(O)C(=O)c1cccc(C(=O)O)c1 [C00016],<1%,<1%,<1%,<1%,–
O=C(O)CCC(=O)C(=O)O [C00019],–,–,–,–,"K app m (human JMJD5; 0.15 μM JMJD5, 50 mM MOPS pH 7.5, 20 °C, LAA present): 0.29 ± 0.04 µM; k app cat (human JMJD5; 0.15 μM JMJD5, 50 mM MOPS pH 7.5, 20 °C, LAA present, calculated from vmax): 0.0056 ± 0.0002 s⁻¹"
O=C(O)CCC(=O)C(=O)O [C00021],–,–,–,–,K m (human FIH): 0.8 ± 0.1 µM; k cat (human FIH): 0.04 ± 0.01 s⁻¹
O=C(O)C(=O)C1CC[C@@H](C(=O)O)C1 (stereo partly drawn) [C00022],–,–,–,–,K m (human FIH): 14.8 ± 2.6 µM; k cat (human FIH): 0.01 ± 0.001 s⁻¹
O=C(O)CCC(=O)C(=O)O [C00023],–,–,–,–,K app m (human KDM4E): 4.2 ± 1.1 µM; k app cat (human KDM4E): 0.14 ± 0.01 s⁻¹
O=C(O)C(=O)C1CC[C@@H](C(=O)O)C1 (stereo partly drawn) [C00024],–,–,–,–,K app m (human KDM4E): No reaction; k app cat (human KDM4E): No reaction
"O=C1O[C@H]([C@@H](O)CO)C(O)=C1O [LAA, L-ascorbic acid, reference compound]",–,–,–,–,cosubstrate/cofactor role for JMJD5 (human JMJD5): not a cosubstrate/cofactor
"RCCD1_134–150: RCCD1 amino acids 134–150, LPLLPCARAYVSPRAPF, JMJD5 substrate peptide [reference compound]",–,–,–,–,"JMJD5-catalyzed hydroxylation of the substrate peptide (human JMJD5; after 1 h incubation, 50 mM MOPS pH 7.5, 20 °C): < 10%"
